Test results published in patent publication US20110144128A1, “Heterocyclic Carboxamide Compounds as Steroid Nuclear Receptors Ligands” (EXELIXIS, INC., priority 2005, published 2011).

How the values were obtained:
human MR = target: T1, human MR (Homo sapiens, UniProt P08235); test: GAL4-MR cell based assay, antagonist format
T1 construct: expressed in transfected cells; host or cells: CV-1 (African Green Monkey Kidney Cells), transiently transfected with pCMX-GAL4-MR
T1 sequence (P08235 671-984): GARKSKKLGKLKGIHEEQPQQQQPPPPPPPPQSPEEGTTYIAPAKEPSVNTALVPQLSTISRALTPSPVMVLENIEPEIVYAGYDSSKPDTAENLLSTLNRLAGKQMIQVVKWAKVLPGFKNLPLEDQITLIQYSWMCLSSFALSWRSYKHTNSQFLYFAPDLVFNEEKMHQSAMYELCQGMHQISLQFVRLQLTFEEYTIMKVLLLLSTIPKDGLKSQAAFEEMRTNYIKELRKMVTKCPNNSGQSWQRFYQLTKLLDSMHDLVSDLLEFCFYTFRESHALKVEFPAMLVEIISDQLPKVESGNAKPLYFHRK
Experimental: Compound activity was determined in a cell-based assay using a GAL4-MR chimera to identify compounds with the ability to modulate MR activity.
The pCMX-GAL4-MR expression plasmid was constructed by cloning nucleotides encoding amino acids 671 to 984 of human MR (see GenBank sequence AAA59571) into the vector pCMX-GAL4 (Perlmann et al., 1993,Genes & Development 7:1411-1422) comprising nucleotides encoding for amino acids 1-147 of the GAL4 DNA binding domain.
The TK-MH 100x4-Luc (GAL4UAS-TK-Luciferase) reporter construct was constructed by insertion of four copies of the Gal4 UAS (Kang et al. 1993, J. Biol. Chem. 268:9629-9635) into the Hind III site of TK-Luc. The parental plasmid, TK-Luc, was prepared by insertion of the Herpes simplex virus thymidine kinase gene promoter (−105 to +51) obtained from the plasmid pBLCAT2 by digestion with HindIII and XhoI (described in Luckow et al., 1987, Nuc. Acid. Res. 15:5490) into the plasmid MMTV-LUC described by Hollenberg and Evans, 1988, Cell 55:899-906) after removal of MMTV-LTR promoter sequence from MMTV-LUC via digestion with HindIII and XhoI. Correct cloning was confirmed by restriction digestion and/or sequencing.
Assays were performed using CV-1 (African Green Monkey Kidney Cells) (ATCC) cells grown in T175 flasks at a density of 3×10^6 cells/flask in DMEM with 5% FBS. Cells were transfected one day after plating at 70-80 percent confluency with a DNA mixture containing (per T175 flask) 9 […] pCMX-GAL4-MR, 9 μg TK-MH100x4-Luc, and 2 μg pCMX β-Gal using the transfection reagent FuGENE6 (Roche Molecular Biochemicals, Indianapolis, Ind.) following recommended protocols and instructions provided by the manufacturer, and incubated with transfection reagents for 5 hours at 37° C.
Transfected cells were trypsinized, resuspended in media, and 45 μL was added to assay plates at a density of approximately 5,000 cells/well using a MultiDrop dispenser (MTX Lab Systems, Inc., VA). The assay plates containing both compounds and screening cells were incubated for approximately 20 hours at 37° C. and 5% CO2 in a tissue culture incubator.
After incubation of the transfected cells with compounds, Lysis buffer (1% Triton X-100, 10% Glycerol, 5 mM DTT, 1 mM EGTA, 25 mM Tricine, pH 7.8) and Luciferin assay buffer (0.73 mM ATP, 22.3 mM Tricine, 0.11 mM EDTA, 33.3 mM DTT, 0.2M MgSO4, 11 mM Luciferin, 6.1 mM Coenzyme A, 0.01 mM HEPES, pH 7.8) were prepared. Media was removed from the plates and lysis buffer and luciferin assay buffer mixed in a 1:1 ratio and then 30 μl of the mixture was added to each well using a Multidrop dispenser. Plates were read on the Northstar (Applied Biosystems, Foster City, Calif.) and data was analyzed using ActivityBase (ID Business Solutions, Ltd., Guildford, Surrey, UK). If required, luciferase values may be normalized for transfection efficiency by measuring β-galactosidase activity based on expression from the pCMX-βGal expression plasmid as described previously (Willy et al., 1995, Gene & Development, 9:1033-1045).
(§1) The following table provides in vitro MR activity data of representative compounds described in the Examples. […] The “+” mark under the selectivity column is given to those compounds having greater than ten-fold antagonist activity against MR compared to at least one nuclear receptor selected from AR, ERα, GR and PR, as determined from the GAL4-AR, GAL4-ERα, GAL4-GR and GAL4-PR assays. The “++” mark under the selectivity column identifies those compounds having greater than ten-fold antagonist activity against MR compared to the four nuclear receptors AR, ERα, GR and PR, as determined from the GAL4-AR, GAL4-ERα, GAL4-GR and GAL4-PR assays.

AR, ERα, GR and PR = test: selectivity assays GAL4-AR, GAL4-ERα, GAL4-GR and GAL4-PR, antagonist mode; assay type: cell-based; conditions: antagonist activity against MR compared to AR
Experimental: In certain cases, compounds were also evaluated for activity in selectivity assays with other steroid hormone receptor members, including AR, ER, GR and PR, as well as GAL4 alone. Steroid receptors used for selectivity assays were essentially generated as described above for pCMX-GAL4-MR, and comprised the LBD and a portion of the hinge region of the nuclear receptor of interest cloned in frame into the vector pCMX-GAL4 (Perlmann et al., 1993,Genes & Development 7:1411-1422) as described above.
Assays run in antagonist mode included agonists as follows: AR; 25 nM dihydrotestosterone (DHT), ER; 4.5 nM estradiol, GR; 20 nM dexamethasone, and PR; 2 nM medroxyprogesterone (MPA), respectively. Assays run in agonist mode contained no supplemental compounds.
as §1

| IC50 (human MR) [nM] | SMILES | Selectivity (AR, ERα, GR and PR) |
| --- | --- | --- |
| < 500 | Cc1nc(C(=O)Nc2ccc(S(C)(=O)=O)cc2)n(C)c1-c1ccccc1Oc1ccccc1 [1,4-dimethyl-5-(2-phenoxy-phenyl)-1H-imidazole-2-carboxylic acid (4-methanesulfonyl-phenyl)-amide] | ++ (greater than ten-fold antagonist activity against MR compared to the four nuclear receptors AR, ERα, GR and PR) |
| < 500 | Cc1c(C(=O)Nc2ccc(S(C)(=O)=O)cc2)nn(C)c1-c1ccccc1C(F)(F)F [1,4-dimethyl-5-(2-trifluoromethyl-phenyl)-1H-pyrazole-3-carboxylic acid (4-methanesulfonyl-phenyl)-amide] | + (greater than ten-fold antagonist activity against MR compared to at least one nuclear receptor selected from AR, ERα, GR and PR) |
| < 500 | Cc1c(C(=O)Nc2ccc(S(N)(=O)=O)cc2)cn(C)c1-c1ccccc1C(F)(F)F [1,4-dimethyl-5-(2-trifluoromethyl-phenyl)-1H-pyrrole-3-carboxylic acid (4-sulfamoyl-phenyl)-amide] | ++ (greater than ten-fold antagonist activity against MR compared to the four nuclear receptors AR, ERα, GR and PR) |
| < 500 | Cc1cc(C(=O)Nc2ccc(S(C)(=O)=O)cc2)c(C)n1-c1ccccc1/C=C/C(C)(C)C [1-[2-((E)-3,3-Dimethyl-but-1-enyl)-phenyl]-2,5-dimethyl-1H-pyrrole-3-carboxylic acid (4-methanesulfonyl-phenyl)-amide] | ++ (greater than ten-fold antagonist activity against MR compared to the four nuclear receptors AR, ERα, GR and PR) |
| 1000 to 5000 | Cc1cc(C(=O)Nc2ccc(S(C)(=O)=O)cc2)c(C)n1-c1ccc(NC(=O)c2ccc(C(F)(F)F)cc2C(F)(F)F)cc1C(F)(F)F [1-[4-(2,4-bis-trifluoromethyl-benzoylamino)-2-trifluoromethyl-phenyl]-2,5-dimethyl-1H-pyrrole-3-carboxylic acid (4-methanesulfonyl-phenyl)-amide] | + (greater than ten-fold antagonist activity against MR compared to at least one nuclear receptor selected from AR, ERα, GR and PR) |
| < 500 | Cc1ccc(NC(=O)c2cc(C)n(-c3ccccc3C(F)(F)F)c2C)cc1Cl [2,5-Dimethyl-1-(2-trifluoromethyl-phenyl)-1H-pyrrole-3-carboxylic acid (3-chloro-4-methyl-phenyl)-amide] | – |
| 500 to 1000 | Cc1ccc(NC(=O)c2cc(C)n(-c3ccccc3C(F)(F)F)c2C)cc1F [2,5-Dimethyl-1-(2-trifluoromethyl-phenyl)-1H-pyrrole-3-carboxylic acid (3-fluoro-4-methyl-phenyl)-amide] | – |
| < 500 | Cc1cc(C(=O)Nc2ccc(S(N)(=O)=O)cc2)c(C)n1-c1ccccc1C(F)(F)F [2,5-Dimethyl-1-(2-trifluoromethyl-phenyl)-1H-pyrrole-3-carboxylic acid (4-sulfamoyl-phenyl)-amide] | ++ (greater than ten-fold antagonist activity against MR compared to the four nuclear receptors AR, ERα, GR and PR) |
| < 500 | Cc1cnc(NC(=O)c2cc(C)n(-c3ccccc3C(F)(F)F)c2C)s1 [2,5-Dimethyl-1-(2-trifluoromethyl-phenyl)-1H-pyrrole-3-carboxylic acid (5-methyl-thiazol-2-yl)-amide] | – |
| < 500 | Cc1cc(C(=O)Nc2ccc3ccccc3c2)c(C)n1-c1ccccc1C(F)(F)F [2,5-Dimethyl-1-(2-trifluoromethyl-phenyl)-1H-pyrrole-3-carboxylic acid naphthalen-2-ylamide] | – |
| 500 to 1000 | Cc1cc(C(=O)Nc2ccc(S(C)(=O)=O)cc2)c(C)n1-c1ccccc1C(=O)Nc1cccc([N+](=O)[O-])c1 [2,5-Dimethyl-1-[2-(3-nitro-phenylcarbamoyl)-phenyl]-1H-pyrrole-3-carboxylic acid (4-methanesulfonyl-phenyl)-amide] | + (greater than ten-fold antagonist activity against MR compared to at least one nuclear receptor selected from AR, ERα, GR and PR) |
| 1000 to 5000 | Cc1cc(C(=O)Nc2ccc(S(=O)(=O)NC(=N)N)cc2)c(C)n1-c1ccccc1C(F)(F)F [2,5-Dimethyl-1-[2-(trifluoromethyl)phenyl]-1H-pyrrole-3-carboxylic acid (4-guanidinosulfonyl-phenyl)-amide] | + (greater than ten-fold antagonist activity against MR compared to at least one nuclear receptor selected from AR, ERα, GR and PR) |
| < 500 | Cc1cc(C(=O)Nc2ccc(S(C)(=O)=O)cc2)c(C)n1-c1cccc2ccccc12 [2,5-Dimethyl-1-naphthalen-1-yl-1H-pyrrole-3-carboxylic acid (4-methanesulfonyl-phenyl)-amide] | ++ (greater than ten-fold antagonist activity against MR compared to the four nuclear receptors AR, ERα, GR and PR) |
| < 500 | COc1cc(NC(=O)c2cc(C)n(-c3ccccc3C(F)(F)F)c2C)ccc1S(N)(=O)=O [2,5-dimethyl-1-(2-trifluoromethyl-phenyl)-1H-pyrrole-3-carboxylic acid (3-methoxy-4-sulfamoyl-phenyl)-amide] | ++ (greater than ten-fold antagonist activity against MR compared to the four nuclear receptors AR, ERα, GR and PR) |
| 500 to 1000 | Cc1cc(C(=O)Nc2ccc(NS(C)(=O)=O)cc2)c(C)n1-c1ccccc1C(F)(F)F [2,5-dimethyl-1-(2-trifluoromethyl-phenyl)-1H-pyrrole-3-carboxylic acid (4-methanesulfonylamino-phenyl)-amide] | + (greater than ten-fold antagonist activity against MR compared to at least one nuclear receptor selected from AR, ERα, GR and PR) |
| 500 to 1000 | Cc1cc(C(=O)Nc2ccc(S(=O)(=O)C(C)C)cc2)c(C)n1-c1ccccc1C(F)(F)F [2,5-dimethyl-1-(2-trifluoromethyl-phenyl)-1H-pyrrole-3-carboxylic acid [4-(propane-2-sulfonyl)-phenyl]-amide] | + (greater than ten-fold antagonist activity against MR compared to at least one nuclear receptor selected from AR, ERα, GR and PR) |
| 500 to 1000 | Cc1sc(C(=O)Nc2ccc(S(C)(=O)=O)cc2)c(C)c1-c1ccccc1C(F)(F)F [3,5-dimethyl-4-(2-trifluoromethyl-phenyl)-thiophene-2-carboxylic acid (4-methanesulfonyl-phenyl)-amide] | – |
| 1000 to 5000 | Cc1c(C(=O)Nc2ccc(S(C)(=O)=O)cc2)ncn1-c1ccccc1C(F)(F)F [5-methyl-1-(2-trifluoromethyl-phenyl)-1H-imidazole-4-carboxylic acid (4-methanesulfonyl-phenyl)-amide] | – |
